Patent US5521315A, “Olefin substituted long chain compounds” (priority 1993, dated 1996)
Values joined by “and” are separate entries in the source; they are usually repeats but may differ in a detail not shown here. Equal entries are not always repeated. “Also recorded” adds a separate entry of the source. Where two headings read alike, the source gives them in different places.

Experiments:
[1] = tested on: CMV promoter activity in transformed (adenovirus) cells; experiment: CMV promoter assay (gene transcription and translation; cytotoxicity in transformed cells); assay type: cell-based
Source text: FIG. 18 illustrates data regarding proliferative activity of various inventive compounds for inducting CMV promoter activity. The CMV promoter assay measures gene transcription and translation activity wherein any active compounds will have cytotoxic activity to inhibit cellular protein synthesis machinery in transformed (adenovirus) cells.
This example illustrates data regarding proliferative activity of various inventive compounds for inducting CMV promoter activity. The CMV promoter assay measures gene transcription and translation activity wherein any active compounds will have cytotoxic activity to inhibit cellular protein synthesis machinery in transformed (adenovirus) cells.

human lymphocytes = experiment: CD3 blastogenesis assay; assay type: cell-based; details: IL-2 or CD3 blastogenesis; FIG. 13
Experimental: The CD3 blastogenesis assay is virtually identical to the IL-2 blastogenesis assay described herein, except a human anti-CD3 monoclonal antibody (4 μg/ml, Boehinger Manheimm) is used instead of human IL-2 and the cells are incubated for only three days.
This example illustrates various IC50 values of five inventive compounds as determined by an IL-2 blastogenesis assay described in example 44 above or a CD3 blastogenesis assay. The CD3 blastogenesis assay is virtually identical to the IL-2 blastogenesis assay described herein, except a human anti-CD3 monoclonal antibody (4 μg/ml, Boehinger Manheimm) is used instead of human IL-2 and the cells are incubated for only three days.

mast cell degranulation = experiment: Serotonin release assay (inhibition of mast cell degranulation); assay type: cell-based; design: INCORP / TOTAL: unit not given here; details: for RELEASE-SPONT: average corrected for spontaneous release; for AVERAGE % RELEASE: average of duplicates
Source text: A serotonin release assay is utilized to study the utility of the inventive compounds for treatment of asthma and allergy. […] This assay measures mast cell degranulation, which is an early phase reaction to allergen challenge. Mast cells grown in tissue culture are first loaded with ^3 H serotonin, which is incorporated into the granules in the cells. The mast cells are sensitized with antigen specific monoclonal IgE, and then triggered to degranulate with the specific antigen (dinitorphenolbound to BSA (DNP)). When the cells degranulate, ^3 H Serotonin is released into the medium, and can be measured directly. The ability of the inventive compounds to inhibit the degranulation response is determined by the decrease in ^3 H Serotonin released in the presence of drug and is represented as % INHIBITION.
Specifically, the serotonin release assay seeds 2×10^5 cells in 0.5 ml medium in duplicate for spontaneous release, IgE+DNP, IgE+DNP+EtOH (vehicle control), and inventive compounds. […] The cells are incubated for 18 hours at 37° C. in 5% CO2, washed twice with 0.5 ml Isotonic Buffer (25 mM disodium PIPES pH 7.1,100 mM NaCl, 5 mM KCl, 5 mM glucose, 0.4 mM MgCl2, 1mM CaCl2, 0.1% BSA), and sterile filtered. 250 μl Isotonic Buffer is added per well and the plates are equilibrated in an incubator for about 10 min. Drug is added and cells are activated with 40 ng/ml DNP-BSA (1 mg/ml Diluted 1:200 in Isotonic Buffer) for 45 minutes using 2 μl/250 μl. Spontaneous release is determined in incubated cells with 250 μl Isotonic Buffer for 45 minutes and the reaction is stopped by removing supernatant and centrifuging at ~4000 rpm in microfuge for 15 seconds to remove any detached cells. Released radiolableled serotonin is counted. To determine amount of ^3 H-serotonin incorporated into the cells, (a) remove Isotonic Buffer and lyse cells by adding 250 μl 1% Triton-X100 in PBS, (b) add to 5 ml scintillation fluid, (c) wash 2× with Triton/PBS, and (d) add washes to scintillation tube. Percent serotonin release is calculated by dividing the amount of released serotonin by the sum of incorporated plus released serotonin and correcting for spontaneous released serotonin. Compound inhibition is calculated by dividing the percent serotonin release in the presence of a compound by the percent serotonin release in the absence of the compound.
This assay is described above and provides an in vitro model for an allergy and asthma therapeutic product.

murine thymocyte = experiment: Murine thymocyte stimulated by ConA and IL-2 (T cell immune suppression); assay type: cell-based; details: FIGS. 8 and 9
Experimental: A thymocyte costimulator assay is conducted to evaluate the inventive compounds to inhibit activation and proliferation of thymocytes caused by stimulation with Con A and interleukin-1 (IL-1), or […]. Thymuses are obtained from mice (e.g., female Balb/C mice) and the thymuses are removed and dissociated into culture media (e.g., RPMI 1640 without serum supplementation). The dissociated thymus tissue and cell suspension is transferred to centrifuge tubes and allowed to settle, washed with HBSS and resuspended in serum-supplemented culture media (e.g., RPMI 1640 with 10% fetal calf serum). Any contaminating red cells are lysed, and viable cells are resuspended and counted. Thymocytes are plated (e.g., 96-well plates at a density of 2×10^5 cells/well) and a stimulating agent, such as Con A, IL-1 (e.g., IL-1α) or IL-2 is added to the well. The cells are incubated for 4 days at 37° C. On the fourth day, the cells are pulsed with tritiated thymidine and cell proliferation determined. Inventive compounds are added at the time of stimulating agent addition.
A third assay measures an ability of an inventive compound to inhibit IL-2-induced proliferation of murine thymocytes. Thymus glands are obtained from 4-6 week old mice and plated as a single cell suspension into flat bottomed wells in RPMI 1640 medium supplemented with 10% fetal calf serum. The inventive compounds are added to appropriate wells and the cells are incubated for 1-2 hrs. Concanavilin A (ConA, 0.25 mg/ml) and […] (20 ng/ml) are added and the plates are incubated for 4 days. Cell proliferation is determined as above.
FIG. 8 compares T cell immune suppression data of thirteen inventive compounds by comparing their IC50 values in a murine thymocyte stimulated by ConA and IL-2 in vitro model.

[2] = tested on: PBMC in mixed lymphocyte assay culture; experiment: Percent viable cells in mixed lymphocyte assay culture after six days; assay type: cell-based, human; details: 100 μM, six days of culture
[3] = tested on: PBMC (peripheral blood mononuclear cells); experiment: Two-way mixed lymphocyte reaction (MLR), proliferation of PBMC to allogeneic stimulation; assay type: cell-based, human; details: FIGS. 1 and 2
Source text: Various in vitro assays can be used to measure effects of the inventive compounds to module immune activity and have antitumor activity using a variety of cellular types. For example, a mixed lymphocyte reaction (MLR) provides a valuable screening tool to determine biological activity of each inventive compound. In the MLR, PBMCs (peripheral blood mononuclear cells) are obtained by drawing whole blood from healthy volunteers in a heparinized container and diluted with an equal volume of hanks balanced salt solution (HBSS). This mixture is layered on a […] density gradient, such as a Ficoll-Hypaque® gradient (specific gravity 1.08), and centrifuged at 1000×g for 25 minutes at room temperature or cooler. PBMC are obtained from a band at a plasma-Ficoll interface, separated and washed at least twice in a saline solution, such as HBSS. Contaminating red cells are lysed, such as by ACK lysis for 10 min at 37° C., and the PBMCs are washed twice in HBSS. The pellet of purified PBMCs is resuspended in complete medium, such as RPMI 1640 plus 20% human inactivated serum. Proliferative response of PBMC to allogeneic stimulation is determined in a two-way MLR performed in a 96-well microliter plate. Briefly, approximately 10^5 test purified PBMC cells in […] complete medium are co-cultured with approximately 10^5 autologous (control culture) or allogeneic (stimulated culture) PBMC cells, wherein the allogeneic cells are from HLA disparate individuals. Varying doses of compounds (drug) are added at the time of addition of cells to the microtiter plate. The cultures are incubated for 6 days at 37° C. in a 5% CO2 atmosphere. At the conclusion of the incubation tritiated thymidine is added (for example, […] of 40 to 60 Ci/mmole) and proliferation determined by liquid scintillation counting.
This example illustrates a mixed lymphocyte reaction assay of inventive compounds by showing the IC50 value of each compound in this assay and a dose response of several compounds to illustrate an IC50 determination.

[4] = 50 μM, Table 4, duplicate wells

| Structure (SMILES) | IC50 [1] | activity in serotonin release assay (mast cell degranulation; 50 μM) | RELEASE-SPONT (mast cell degranulation; 50 μM, Table 4) | AVERAGE % RELEASE (mast cell degranulation; 50 μM, Table 4) | inhibition at 50 µM (mast cell degranulation; Mast cell, 50 μM, Table 4) | further results |
| --- | --- | --- | --- | --- | --- | --- |
| CC/C=C/CCCCCn1c(=O)c2c(ncn2C)n(C)c1=O [CT2512, 1-(6-trans-nonenyl)-3,7-dimethylxanthine] | 50 µM | appears to increase the activity; also recorded: increases the activity | 1.65% | 18.20% | 79.5% | immune suppressing activity in blastogenesis assays (human lymphocytes): significant immune suppressing activity |
| C=CCCCCn1c(=O)c2c(ncn2COC(=O)C(C)(C)C)n(C)c1=O [CT1441, 1-(5-hexenyl)-3-methyl-7-methylpivaloylxanthine] |  | appear to be quite potent |  | 15.92% |  | IC50 ([1]; Table 2, read-out: IC50): 300 µM; T cell immune suppressing activity (murine thymocyte): potent immune suppressing activity; % INHIBITION (mast cell degranulation; 50 μM, Table 4): 107.89%; % RELEASE (mast cell degranulation; [4]): 15.85% and 16.00%; INCORP (mast cell degranulation; [4]): 22567 and 24238; RELEASE (mast cell degranulation; [4]): 2125 and 2308; RELEASE X2 (mast cell degranulation; [4]): 4250 and 4616; TOTAL (mast cell degranulation; [4]): 26817 and 28854; % INHIBITION (mast cell degranulation; 50 μM, Table 5): 107.89% |
| C=CCCCCCCCCCn1c(=O)c2c(ncn2C)n(C)c1=O [CT2501, 1-(10-undecenyl)-3,7-dimethylxanthine] | 200 µM | the two most potent compounds in this group | 2.50% | 19.06% | 68.8% | cytotoxicity in mixed lymphocyte assay culture [2]: little or no cytotoxicity at concentrations well above its effective concentrations; immune suppressing activity in blastogenesis assays (human lymphocytes): significant immune suppressing activity; mixed lymphocyte reaction activity [3]: showed activity within dose ranges achievable in vivo |
| C=CCCCn1c(=O)c2c(ncn2C)n(C)c1=O [CT1575, 1-(4-pentenyl)-3,7-dimethylxanthine] | > 500 µM | the two most potent compounds in this group | 4.33% | 20.89% | 46% |  |
| C=CCCCCCCCN1C(=O)CCCC1=O [CT1604, N-(8-nonenyl)glutarimide] | 100 µM | appear to be quite potent | 0.41% | 16.96% | 94.9% | RELEASE-SPONT (mast cell degranulation; 25 uM, Table 4): 4.85%; AVERAGE % RELEASE (mast cell degranulation; 25 uM, Table 4): 21.41%; inhibition at 25 µM (mast cell degranulation; Mast cell, 25 uM, Table 4): 39.5% |
| CC/C=C\CCCCCn1c(=O)c(C)cn(C)c1=O [CT1916, 3-(6-cis-nonenyl)-1-methylthymine] | 250 µM | appears to decrease the activity | 6.02% | 22.58% | 24.9% |  |
| CC/C=C\CCCCCn1c(=O)ccn(C)c1=O [CT1814, 3-(6-cis-nonenyl)1-methyluracil] | 100 µM | appears to decrease the activity | 5.94% | 22.50% | 25.9% |  |
| C=CCCCCCCCn1c(=O)ccn(C)c1=O [CT1817, 3-(8-nonenyl)1-methyluracil] | 250 µM |  | 3.57% | 20.12% | 55.5% |  |
| C=CCCCCCCCn1c(=O)c2[nH]cnc2n(C)c1=O [CT1405, 1-(8-nonenyl)-3-methylxanthine] | 100 µM |  | 5.13% | 21.69% | 36% |  |
| C=CCCCCN1C(=O)c2ccccc2C1=O [CT1101, N(5-hexenyl)phthalimide] | 250 µM |  | 2.05% | 18.60% | 74.5% |  |
